Assay results as given in patent US10918753B2, “Use of ozone to control bioburden in precipitated calcium carbonate slurry (PCC)” (Colgate-Palmolive Company, priority 2014, dated 2021).

Test system: gram negative and gram positive bacilli
Assay: Ozone treatment of precipitated calcium carbonate slurry; bioburden / log reduction of bacteria at sampling points
Type: cell-based
Description: A precipitated calcium carbonate slurry was prepared as shown FIG. 1. At the precipitation phase of the “Region of High Microbial Growth”, FIG. 1), the slurry was contaminated with gram negative and gram positive bacilli. The shiny was then continuously transferred from a precipitation tank (not shown) to a neutralization tank (100). Upon entry into the neutralization tank, the slurry was neutralized using carbon dioxide. A sample was collected from the neutralization tank to assess the initial bioburden of the slurry (3.6×10^6 CFU/g). After neutralization, 3.5 or 5 ppm (depending on trial) of ozone was injected into the slurry after circulation through the pump (120) (FIG. 3). […] The pH of the slurry in the neutralization tank ranged from 6.9 to 8.3 and the temperature ranged from 24° C. to 46° C.
The degree of log reduction in bacteria was sampled at sampling point 1 (160) (FIG. 3) at time zero and every five minutes up to 40 minutes. As depicted in Table 1, below, a 1-2 log reduction of bacteria was observed after 40 minutes under recirculation.
A precipitated calcium carbonate slurry was prepared according to Example 1. Five trials were conducted. The ozone was injected as described in Example 1 at a concentration ranging from 5 ppm to 25 ppm. Samples were taken after 40 minutes of recirculation, 40 minutes after ozone contact with the slurry in the neutralization tank (100) or immediately after the slurry passed through the static mixer (140) as shown in FIG. 3. […] This difference is log reduction may be attributable to the mixing of ozone-treated slurry in the neutralization tank (100) with the non-treated slurry from the precipitation tank (not shown).
The sampling variability was confirmed in further trials by assessing the ozone concentration before and after ozone treatment and assessing the bioburden from samples taken at sampling point 1 (160) or sampling point 2 (150). In one trial, an initial bioburden (without ozone) of a sample collected from the slurry tank was 3.6×10^6 CFU/g. After an ozone injection at a 5 ppm concentration, the amount of bioburden was reduced to 1.7×10^4 CFU/g after 40 minutes recirculation. […] However, when a sample in the third trial was collected and tested at sampling point 2 (150) a few seconds after ozone injection, the bioburden was less than 10 CFU/g. Accordingly, the data support that the disclosed process using ozone treatment is capable of reducing an initial bioburden by 5 log, i.e., 10^6 to 10^1 CFU/g.

Structure (SMILES): O=[O+][O-] [ozone]
- log reduction of bacteria (Example 1 summary, 3.5 or 5 ppm ozone, sampling point 1, after 40 minutes under recirculation): 1-2 log
- Log Reduction (Example 1 trial T1, sampling point 1, ozone 5.0 ppm, 12% PCC, pH 8.3, 24 °C, 40 minutes under recirculation): 2 log
- Log Reduction (Example 1 trial T2, sampling point 1, ozone 5.0 ppm, 28% PCC, pH 7.2, 33 °C, 40 minutes under recirculation): 2 log
- Log Reduction (Example 1 trial T3, sampling point 1, ozone 3.5 ppm, 39% PCC, pH 6.9, 33 °C, 40 minutes under recirculation): 1 log
- Log Reduction (Example 1 trial T4, sampling point 1, ozone 5.0 ppm, 39% PCC, pH 6.9, 46 °C, 40 minutes under recirculation): 2 log
- log reduction of bacteria (Example 2 summary, higher ozone injection (25 ppm)): 4-5 log
- log reduction of bacteria (Example 2 summary, lower concentrations of injected ozone): 1-2 log
- Log Reduction (Example 2 trial T1, sampling point 1, ozone 7.5 ppm, Recirculation, pH 8.3, 40 minutes): 2 log
- Log Reduction (Example 2 trial T2, sampling point 1, ozone 7.5 ppm, Recirculation, pH 7.2, +40 minutes): +2 log
- Log Reduction (Example 2 trial T3, sampling point 1, ozone 5 ppm, Within Tank, pH 6.9, 40 minutes): 1 log
- Log Reduction (Example 2 trial T4, sampling point 1, ozone 25 ppm, Recirculation, pH 6.9, 40 minutes): 2 log
- Log Reduction (Example 2 trial T5, sampling point 2, ozone 25 ppm, After initial flow through static mixer, pH 6.9, seconds): 4-5 log
- bioburden (Example 3 another trial, initial bioburden 8.8×10^5 CFU/g, sampling point 2, seconds after ozone injection): 7.0×10^1 CFU/g
- reduction of initial bioburden (Example 3 conclusion, 10^6 to 10^1 CFU/g): 5 log
- bioburden (Example 3 first trial, initial bioburden 3.6×10^6 CFU/g, ozone 5 ppm, after 40 minutes recirculation): 1.7×10^4 CFU/g
- bioburden (Example 3 first trial, initial bioburden 3.6×10^6 CFU/g, ozone 5 ppm, sampling point 2): 9.1×10^1 CFU/g
- bioburden (Example 3 third trial, sampling point 1, after ozone treatment and 40 minutes recirculation (mixed with untreated slurry)): 8.8×10^5 CFU/g
- bioburden (Example 3 third trial, sampling point 2, a few seconds after ozone injection): less than 10 CFU/g
